Data set [1] concerns T4 lymphocytes (CEM cell line). Kind of data set: NCI in vitro anti-HIV screen, growth inhibition of uninfected CEM cells (XTT). Type of data set: cell-based. The conditions noted are these: for IC50: read-out: IC50 (50% inhibitory concentration); for cytotoxicity (statement): NCI anti-HIV screen, CEM cells. Here is the method: (§1) The assay includes the killing of T4 lymphocytes by HIV. Pursuant to the test, small amounts of HIV are added to cells, and a complete cycle of virus reproduction is necessary to obtain the required cell killing. Agents that interact with virions, cells, or virus gene-products to interfere with viral activities will protect cells from cytolysis. The system is thus designed to detect anti-HIV activity. However, compounds that degenerate or are rapidly metabolized in the culture conditions may not show activity in this screen. All tests are compared with at least one positive (e.g., AZT-treated) control done at the same time under identical conditions.
(§2) 1. The candidate agent is dissolved in dimethyl sulfoxide (unless otherwise instructed), then diluted 1:200 in cell culture medium. Further dilutions (half-log10) are prepared before adding to 96-well microtiter plates.
(§3) 2. T4 lymphocytes (CEM cell line) are exposed to HIV at a virus-to-cell ratio of approximately 0.05 and are plated along with non-infected control cells into drug-containing wells or wells with medium alone.
(§4) 3. Cultures are incubated at 37° in a 5% carbon dioxide atmosphere for 6 days.
(§5) 4. The tetrazolium salt, XTT, is added to all wells, and cultures are incubated to allow formazan color development by viable cells.
(§6) 5. […] are analyzed spectrophotometrically to quantitate formazan production and, in addition, are viewed microscopically for detection of viable cells and confirmation of protective activity.
(§7) 6. Drug-treated virus-infected cells are compared with drug-treated non-infected cells and with other appropriate controls (untreated infected and untreated non-infected cells, drug-containing wells without cells, etc.) on the same plate.
(§8) 7. Data are reviewed in comparison with other tests performed at the same time, and a determination about activity is made.
Survival values of this parameter less then 50% are considered acceptable in the current protocol.
A general note: Formazan colour is commonly taken as a measure of viable cells.

Another data set relates to HIV. As to the kind of experiment: NCI in vitro anti-HIV screen (XTT soluble-formazan assay, protection of HIV-infected CEM cells). The format is cell-based. The conditions noted are these: for EC50: approximate values, one value per run; for anti-HIV effect (statement): NCI anti-HIV screen, in vitro, CEM cells; for TI50 (IC/EC), therapeutic index: ratio IC50/EC50 of the same run.
Excerpt: as §1, with “The National Cancer Institute's procedure for testing for agents active against Human Immunodeficiency Virus (HIV) (Weislow, O. W. et al, "New soluble-formazan assay for HIV-1 cytopathic effects: application to high-flux screening of synthetic and natural products for AIDS-antiviral activity," J. Natl. Cancer Inst., 81, 577-586, 1989) is designed to detect agents acting at any stage of the virus reproductive cycle. The assay” for “The assay”
as §2, §3, §4, §5, §6, §7, §8
Approximate values for 50% effective concentration (EC50) (protection in infected cells), 50% inhibitory concentration (IC50) and the therapeutic index (IC50 /EC50) have been calculated for each test and are provided in the tables of each Example.
Examples 1, 6 and 8 compounds, respectively, against the measured test values expressed as a percentage of the uninfected, untreated control values. The solid line depicts the percentage of surviving HIV-infected cells treated with sample (at the indicated concentration) relative to uninfected, untreated controls. The solid line expresses the in vitro anti-HIV activity of the compound of the tested compound. The dashed line depicts the percentage of surviving uninfected cells treated with the compound of the Example relative to the same uninfected, untreated controls. The dashed line expresses the in vitro growth inhibitory properties of the compound of the Example. The viral cytopathic effect of a compound of each Example is indicated by a combination of dashes and dots. […] Survival values of this parameter less then 50% are considered acceptable in the current protocol.

The mark [2] stands for this setting: Homo sapiens, CCRF-CEM, 144 h, drug-treated uninfected CEM cells, 6 days, XTT, approximate values, one value per run.
[3] abbreviates: drug-treated uninfected CEM cells, 6 days, XTT, approximate values, one value per run.
[4] abbreviates: HIV-infected CEM cells, 6 days, XTT, read-out: EC50 (50% effective concentration, protection in infected cells).
Setting [5] is: Human immunodeficiency virus 1, CCRF-CEM, 144 h, HIV-infected CEM cells, 6 days, XTT, read-out: EC50 (50% effective concentration, protection in infected cells).

Where “and” joins values, the source holds several entries; their conditions need not be identical. Equal values may be shown once. Read-outs that look alike come from different tables or passages of the source.

As for `CCCCCCCCCCCCCCCC=C(c1cc(Cl)c(OC)c(C(=O)O)c1)c1cc(Cl)c(OC)c(C(=O)O)c1` [Formula XXIV, 1,1-di(3'-carboxy-5'-chloro-4'-methoxy)phenyl-1-heptadecene], the values for the IC50 in data set [1] (setting [2]) and in data set [1] (setting [3]) were 26.6 µM and 25.9 µM, respectively. For the same compound, the “cytotoxicity (statement)” value in data set [1] is “cytotoxic”.
As for `CCCCCCCCCC=C(c1cc(Cl)c(OC)c(C(=O)O)c1)c1cc(Cl)c(OC)c(C(=O)O)c1` [Formula XXVII, 1,1-di(3'-ammoniumcarboxy-5'-chloro-4'methoxy) phenyl-1-undecene], the IC50 in data set [1] (setting [2]) is 149 µM; in data set [1] (setting [3]), 166 µM and 169 µM.
Turning to `COc1c(Cl)cc(C(=Cc2c(F)c(F)c(F)c(F)c2F)c2cc(Cl)c(OC)c(C(=O)O)c2)cc1C(=O)O` [Formula XXV], the IC50 in data set [1] (setting [2]) is 434 µM; in data set [1] (setting [3]), 552 µM and 412 µM. Also, the EC50 is 102 µM and 176 µM in the data set on HIV (setting [4]); 140 µM in the data set with HIV (setting [5]).
For the compound `CC(C)CCC[C@@H](C)[C@H]1CC[C@H]2[C@@H]3CC[C@H]4C[C@@H](CCCC(c5cc(Cl)c(O)c(C(=O)O)c5)c5cc(Cl)c(O)c(C(=O)O)c5)CC[C@]4(C)[C@H]3CC[C@]12C` [Formula VI, (5α)-3β-[4,4-Di(3'-ammoniumcarboxy-5'-chloro-4'-hydroxy)phenyl-1-butyl]cholestane], the IC50 in data set [1] (Homo sapiens, CCRF-CEM, 144 h) is above 310 µM. For the same compound, the EC50 was 17 µM in the data set on HIV (Human immunodeficiency virus 1, CCRF-CEM, 144 h, read-out: EC50 (50% effective concentration, protection in infected cells), HIV-infected CEM cells, 6 days, XTT); 15 µM and 23 µM and 25 µM in the data set on HIV (read-out: EC50 (50% effective concentration, protection in infected cells), HIV-infected CEM cells, 6 days, XTT). For the same compound, in the data set with HIV, the “anti-HIV effect (statement)” value was “greatest effect on inhibiting HIV-infected cells, while having a lesser effect on uninfected cells”. Further, the “TI50 (IC/EC), therapeutic index” value in the data set with HIV was > 1.80 × 10^+1 and > 2.10 × 10^+1 and > 1.30 × 10^+1 and > 1.20 × 10^+1.
For the compound `COC(=O)c1cc(C(=CCCBr)c2cc(Cl)c(OC)c(C(=O)OC)c2)cc(Cl)c1OC` [Formula XIX, 4-bromo-1,1-di(3'-carbomethoxy-5'-chloro4'-methoxy)phenyl-1-butene], the figures for the IC50 in data set [1] (setting [2]) and in data set [1] (setting [3]) were 21.5 µM and 15.2 µM, respectively. For the same compound, the EC50 was determined as 7.73 µM in the data set on HIV (setting [4]) and 8.19 µM in the data set on HIV (setting [5]). In the data set on HIV, the “TI50 (IC/EC), therapeutic index” value is 2.62 × 10^0 and 1.96 × 10^0.
As for `CCCCCCCCCC=C(c1cc(Br)c(O)c(C(=O)O)c1)c1cc(Br)c(O)c(C(=O)O)c1` [Formula XX, 1,1-di(3'-ammoniumcarboxy-5'-bromo-4'-hydroxy)phenyl-1-undecene], the IC50 in data set [1] (setting [2]) was above 191 µM. The EC50 in the data set with HIV (setting [5]) was determined as 55.5 µM. In the data set with HIV, the “TI50 (IC/EC), therapeutic index” value was > 3.44 × 10^0.
As for `CCCCCCCCCCCCCCCCC(c1ccc(O)c(C(=O)O)c1)c1ccc(O)c(C(=O)O)c1` [Formula XXII], the IC50 in data set [1] (setting [3]) was 51.4 µM and 119 µM. Besides, the EC50 with HIV (setting [4]) amounted to 3.9 µM. Moreover, the “TI50 (IC/EC), therapeutic index” value with HIV is 1.56 × 10^0 and 3.06 × 10^+1 and 3.05 × 10^+1.
With `CCCCCC=C(c1cc(Br)c(OC)c(C(=O)OC)c1)c1cc(Br)c(OC)c(C(=O)OC)c1` [Formula XII, 1,1-di(5'-bromo-3'-carbomethoxy-4'-methoxy)phenyl-1-heptene], the IC50 in data set [1] (setting [2]) is above 8.95 µM. Besides, the “anti-HIV effect (statement)” value with HIV is reported as “greatest effect on inhibiting HIV-infected cells, while having a lesser effect on uninfected cells”; in the data set with HIV (listed as structure XII), “most effective compounds studied in terms of prevention of the cytopathic effect of HIV in CEM lymphocytes”.
Turning to `CCCCCCCCCC=C(c1cc(Br)cc(C(=O)O)c1OC)c1cc(Br)cc(C(=O)O)c1OC` [Formula XXIII, 1,1-[di-(3'-ammoniumcarboxy-5'-bromo-2'methoxy)phenyl]-1-undecene], the IC50 in data set [1] (setting [2]) was 88.9 µM; in data set [1] (setting [3]) it was 79.5 µM and 68.3 µM and 69.8 µM. Moreover, the “cytotoxicity (statement)” value in data set [1] is given as “cytotoxic”.
As to `CCCCCCCCCCC(c1ccc(O)c(C(=O)O)c1)c1ccc(O)c(C(=O)O)c1` [Formula XVIII], the IC50 in data set [1] (setting [2]) stood at 84.6 µM. For the same compound, the EC50 with HIV (setting [5]) is 33.2 µM. For the same compound, the “TI50 (IC/EC), therapeutic index” value in the data set on HIV is recorded as 2.55 × 10^0.
For `CCCCCCCCCCCCCCCCCCCCCCCCCCCCCC=C(c1cc(Cl)c(O)c(C(=O)O)c1)c1cc(Cl)c(O)c(C(=O)O)c1` [Formula XI, 1,1-di(3'-ammoniumcarboxy-5'-chloro-4'hydroxy) phenyl-1-untriacontene], the IC50 in data set [1] (setting [2]) was above 222 µM; in data set [1] (setting [3]), above 220 µM. In addition, the EC50 in the data set with HIV (setting [4]) was 16.3 µM and 11 µM and 9.3 µM; in the data set with HIV (setting [5]) it was 13.3 µM. Besides, the “anti-HIV effect (statement)” value in the data set with HIV is given as “greatest effect on inhibiting HIV-infected cells, while having a lesser effect on uninfected cells”. Besides, the “TI50 (IC/EC), therapeutic index” value in the data set with HIV is > 1.67 × 10^+1 and > 1.36 × 10^+4 and > 1.90 × 10^+1 and > 2.40 × 10^+1.
Turning to `CCCCCC=C(c1cc(Br)cc(C(=O)O)c1O)c1cc(Br)cc(C(=O)O)c1O` [Formula XV], the IC50 in data set [1] (setting [2]) was above 21.8 µM. Moreover, in the data set with HIV (setting [5]), the EC50 was 15.3 µM. In addition, in the data set with HIV, the “TI50 (IC/EC), therapeutic index” value is listed as > 1.43 × 10^0.
Taken in the same sequence, the figures for `CCCCCCCCCCCCCCCC=C(c1cc(Cl)c(O)c(C(=O)O)c1)c1cc(Cl)c(O)c(C(=O)O)c1` [Formula XIV, 1,1-di(3'-ammoniumcarboxy-5'-chloro-4'-hydroxy)phenyl-1-heptadecene] were above 35 µM, 4.62 µM and > 7.57 × 10^0.
Consider `CC(CCC=C(c1cc(Cl)c(O)c(C(=O)O)c1)c1cc(Cl)c(O)c(C(=O)O)c1)C1CC[C@H]2[C@@H]3CC[C@H]4CCCC[C@]4(C)[C@H]3CC[C@]12C` (some centres unmarked) [Formula IX], for which, in data set [1] (setting [3]), the IC50 was > 59 µM and > 69 µM and 79 µM.
With `O=C(O)c1cc(C(=CCCBr)c2cc(Cl)c(O)c(C(=O)O)c2)cc(Cl)c1O` [Formula XVII], the IC50 in data set [1] (setting [2]) is 214 µM; in data set [1] (setting [3]), 237 µM and 181 µM and 258 µM. Moreover, the EC50 with HIV (setting [4]) was 122 µM and 121 µM and 95.1 µM; in the data set on HIV (setting [5]), 136 µM. Further, the “TI50 (IC/EC), therapeutic index” value in the data set on HIV is 1.58 × 10^0 and 1.93 × 10^0 and 1.50 × 10^0 and 2.71 × 10^0.
As for `CCCCCC=C(c1cc(Cl)c(OC)c(C(N)=O)c1)c1cc(Cl)c(OC)c(C(N)=O)c1` [Formula XVI, 1,1-di(3'-carbamoyl-5'-chloro-4'-methoxy)phenyl-1-heptene], the IC50 in data set [1] (setting [2]) was 17.4 µM; in data set [1] (setting [3]) it was 17.2 µM and 16.3 µM and 13.4 µM.
For the compound `CCCCCCCCCC=C(c1cc(Cl)c(O)c(C(=O)O)c1)c1cc(Cl)c(O)c(C(=O)O)c1` [Formula XIII, 1,1-di(3'-ammoniumcarboxy-5'-chloro-4'-hydroxy)phenyl-1-undecene], the IC50 in data set [1] (setting [2]) was above 49.1 µM. Besides, the EC50 with HIV (setting [5]) came to 37.3 µM. In addition, in the data set with HIV, the “TI50 (IC/EC), therapeutic index” value is reported as > 1.32 × 10^0.
Take `CCCCCC=C(c1cc(Cl)c(OC)c(C(=O)OC)c1)c1cc(Cl)c(OC)c(C(=O)OC)c1` [Formula XXVI, di(3'-carbomethoxy-5'-chloro-4'-methoxy)phenyl-1-heptene]: the values for the IC50 in data set [1] (setting [2]) and in data set [1] (setting [3]) were above 29.1 µM and above 28.2 µM, respectively.
Turning to `COc1c(Cl)cc(C(=CCC[C@H]2CC[C@@]3(C)[C@@H](CC[C@@H]4[C@@H]3CC[C@]3(C)[C@@H]([C@H](C)CCCC(C)C)CC[C@@H]43)C2)c2cc(Cl)c(OC)c(C(=O)O)c2)cc1C(=O)O` [Formula V], the IC50 in data set [1] (Homo sapiens, CCRF-CEM, 144 h) was above 300 µM. Also, in the data set on HIV, the “anti-HIV effect (statement)” value is on record as “greatest effect on inhibiting HIV-infected cells, while having a lesser effect on uninfected cells”.
With “(5α)-3β-[4,4-di(5'-bromo-4'-methoxy-3'-methoxycarbonyl)phenyl-1-buten-3-yl]cholestane [Formula VII]”, the IC50 in data set [1] (setting [3]) was above 280 µM.

(Values after US5439899A, “Cosalane and related compounds having activity against aids and aids-related infections” (priority 1993, dated 1995).)
